Measured values taken from patent US9201062B2, “Predicting toxicity of a compound over a range of concentrations” (CELLOMICS, INC., priority 2011, dated 2015).
Structures can show the parent of a compound that is named as a salt.

Tests used:
[1] = test system: Reactive oxygen species (ROS) levels in cells
Source text: Once imaging has been performed, automated image processing algorithms as are known in the art can be used in the imaging system to determine the measurements in the cell images.
The target i being evaluated was the normalized ROS response.
where μ is the mean of the normalized non-hepatotoxic compound values and σ is the standard deviation of the normalized non-hepatotoxic compound values.
As noted above, for ROS, the upper threshold may be all that is needed. […] The difficulty in compound toxicity measurement because of non-unidirectional response and/or because of incorrect EC50/IC50 calculation from a dose-response curve are avoided by establishing toxicity thresholds based on the negative controls and by flagging a compound as toxic only if its response goes beyond the determined thresholds at any concentration.
For each target, the minimal coefficient K of the deviation value from the mean of the non-hepatotoxic compound data can be calculated to include all the non-hepatotoxic compounds values between μ+K×σ and μ−K×σ values. These values are set respectively as the upper and lower toxicity thresholds for the target. As noted above, for each target both or only one of the thresholds can be used.
(§1) The normalized values from the hepatotoxic compounds (or compounds of interest) are compared with the threshold value determined above. The compound toxicity is determined by verifying whether the normalized value of the compound is outside the threshold value(s). […] Cell loss was determined to be toxic if the normalized value was less than the lower threshold value. Reactive oxygen species level was determined to be toxic if the respective normalized value was greater than the upper threshold value.

[2] = peak serum concentration of the drug; cited from earlier work
[3] = test system: rat primary hepatocytes; experiment: Multiparametric high-content hepatotoxicity prediction assay on rat primary hepatocytes (FIG. 9 decision table); conditions: 24 hours drug incubation, over concentration range, targets: cell number, DNA content, GSH, ROS, mitochondrial membrane potential
Source text: After drug treatment, the hepatic cells are stained with specific fluorescent materials to detect different cellular targets or properties whose changes are associated with cell health, as is known in the art. For example, in the exemplary embodiments discussed herein, as well as in the test data shown, the following five cellular responses are simultaneously monitored: • 1. Cell number (i.e., cell loss, cell density) • 2. Nuclear DNA content • 3. Reduced glutathione (GSH) levels in cells • 4. Reactive oxygen species (ROS) levels in cells • 5. Mitochondrial membrane potential changes
Otherwise the cell contains a “−”.
This corresponds to the number of target cells corresponding to the compound that contain a “+”.
For maintenance of rat primary hepatocytes, Williams E medium can be used containing the following supplements: 15 mM HEPES, 1% ITS+, 4 mM Glutamax, 0.1 μM dexamethasone, 50 units/ml penicillin and 50 μg/ml streptomycin (Hepatocyte maintenance medium). […]
For each target, the minimal coefficient K of the deviation value from the mean of the non-hepatotoxic compound data can be calculated to include all the non-hepatotoxic compounds values between μ+K×σ and μ−K×σ values. […]
as §1
The images were analyzed, as discussed above, to produce the data shown on FIG. 9. […] After 24 hours of drug incubation, the hepatocytes were stained and imaged on a Thermo Scientific ToxInsight HCS reader. The data for each target were normalized and analyzed based on the threshold calculated from the non-hepatotoxic compounds in the manner discussed above. […]

[4] = test system: HepG2 cells; experiment: High-content imaging of HepG2 cells stained for nuclei, glutathione, ROS and mitochondria (FIG. 11); assay type: cell-based; conditions: 25 Cmax, 24 hrs
Description: For routine culture of HepG2 cells, EMEM medium containing the following supplements can be used: 10% fetal bovine serum, 1 mM sodium pyruvate, 1× non-essential amino acids, 100 units/ml penicillin and 100 μg/ml streptomycin (EMEM complete medium).
Cells can be harvested by trypsinization, diluted into EMEM complete medium and cell density was determined. Cells are diluted to 2.0×10^5 cells/ml in EMEM complete medium. 100 μl of the cell suspension are added per well of the 96-well microplate to achieve 20,000 cells/well.
The cells were then stained with specific fluorescent dyes to detect each cellular target. Cell images were then obtained using the ArrayScan VTi Reader manufactured by Cellomics Inc., a subsidiary of Thermo Fisher Scientific Inc. Representative samples 230 of the cell images obtained during the assay are shown in FIG. 11. […] The images of the cells for the different targets look different for the two drugs; Troglitazone reduces the number of cells and mitochondrial membrane potential but […] reduced glutathione levels in HepG2 cells.

| Compound | normalized ROS response relative to upper and lower toxicity thresholds [1] | 1 CMax [2] [µg/mL] | other results |
| --- | --- | --- | --- |
| CC(=O)Oc1ccccc1C(=O)O [Aspirin] | between the upper and lower thresholds values | 0.995 | – |
| CN1CCC(=C2c3ccccc3C=Cc3ccccc32)CC1 [Cyproheptadine HCl] | – | 30 | – |
| O=C1CN(/N=C/c2ccc(-c3ccc([N+](=O)[O-])cc3)o2)C(O)=N1 [Dantrolene] | – | 1.24 | – |
| N#CC(C#N)=NNc1ccc(OC(F)(F)F)cc1 [FCCP] | – | – | number of targets flagged as being toxic (of five monitored targets) [3]: Four |
| CNCCC(Oc1ccc(C(F)(F)F)cc1)c1ccccc1 (stereo not drawn) [Fluoxetine] | between the upper and lower thresholds values | 0.015 | number of targets flagged as being toxic (of five monitored targets) [3]: none |
| Cc1ccc(C)c(OCCCC(C)(C)C(=O)O)c1 [Gemfibrozil] | – | 46.4 | – |
| CCN(CC)CCNc1ccc(CO)c2sc3ccccc3c(=O)c12 [Hycanthone] | flagged as being toxic | – | – |
| Cc1cccc(Nc2ccccc2C(=O)O)c1C [Mefenamic Acid] | flagged as being toxic | 6.5 | – |
| COc1ccc2[nH]cc(CCNC(C)=O)c2c1 [Melatonin] | between the upper and lower thresholds values | 0.00557 | – |
| CCn1cc(C(=O)O)c(=O)c2ccc(C)nc21 [Nalidixic Acid] | – | 30 | – |
| CO[C@@H]1[C@@H](OC(N)=O)[C@@H](O)[C@H](Oc2ccc3c(O)c(NC(=O)c4ccc(O)c(CC=C(C)C)c4)c(=O)oc3c2C)OC1(C)C [Novobiocin] | flagged as being toxic | 62.5 | number of targets flagged as being toxic (of five monitored targets) [3]: five |
| CCCCC1C(=O)N(c2ccccc2)N(c2ccccc2)C1=O [Phenylbutazone] | – | 150 | – |
| CN(CCOc1ccc(CC2SC(=O)NC2=O)cc1)c1ccccn1 (stereo not drawn) [Rosiglitazone] | – | 0.373 | – |
| CN(C)[C@@H]1C(O)=C(C(N)=O)C(=O)[C@@]2(O)C(O)=C3C(=O)c4c(O)cccc4[C@@](C)(O)[C@H]3C[C@@H]12 [Tetracycline] | – | 9.317 | – |
| Clc1ccccc1CN1CCc2sccc2C1 [Ticlopidine] | – | 2.13 | – |
| O=c1n(CCCN2CCN(c3cccc(Cl)c3)CC2)nc2ccccn12 [Trazodone HCl] | – | 1.88 | – |
| Cc1c(C)c2c(c(C)c1O)CCC(C)(COc1ccc(CC3SC(=O)NC3=O)cc1)O2 (stereo not drawn) [Troglitazone] | – | 2.82 | mitochondrial membrane potential [4]: reduces; number of cells [4]: reduces; reduced glutathione levels [4]: increases |
